Consider 48 compounds from patent US10919896B2, “Preparation and uses of pyrimidinone derivatives” (Cancer Research Technology Limited, priority 2016, dated 2021).

Where a name gives a salt, the structure may show the parent alone.

Sequence of Cdc7/ASK (O00311 whole entry): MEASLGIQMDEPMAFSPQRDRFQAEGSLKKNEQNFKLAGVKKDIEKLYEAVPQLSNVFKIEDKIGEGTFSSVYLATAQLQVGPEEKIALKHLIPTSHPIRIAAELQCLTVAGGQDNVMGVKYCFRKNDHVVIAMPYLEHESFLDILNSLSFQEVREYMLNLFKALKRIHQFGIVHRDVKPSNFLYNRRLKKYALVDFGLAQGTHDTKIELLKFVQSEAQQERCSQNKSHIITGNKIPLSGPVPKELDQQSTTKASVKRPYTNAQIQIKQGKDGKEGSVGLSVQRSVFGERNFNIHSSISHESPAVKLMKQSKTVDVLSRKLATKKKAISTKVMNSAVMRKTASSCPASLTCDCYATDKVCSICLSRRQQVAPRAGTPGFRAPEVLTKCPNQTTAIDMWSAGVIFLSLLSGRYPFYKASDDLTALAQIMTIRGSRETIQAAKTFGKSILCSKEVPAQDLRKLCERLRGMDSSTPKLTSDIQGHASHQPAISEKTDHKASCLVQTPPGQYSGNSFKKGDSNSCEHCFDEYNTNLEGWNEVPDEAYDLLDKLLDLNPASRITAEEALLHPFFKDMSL
Sequence of Cdc7/ASK (Q9UBU7 whole entry partner): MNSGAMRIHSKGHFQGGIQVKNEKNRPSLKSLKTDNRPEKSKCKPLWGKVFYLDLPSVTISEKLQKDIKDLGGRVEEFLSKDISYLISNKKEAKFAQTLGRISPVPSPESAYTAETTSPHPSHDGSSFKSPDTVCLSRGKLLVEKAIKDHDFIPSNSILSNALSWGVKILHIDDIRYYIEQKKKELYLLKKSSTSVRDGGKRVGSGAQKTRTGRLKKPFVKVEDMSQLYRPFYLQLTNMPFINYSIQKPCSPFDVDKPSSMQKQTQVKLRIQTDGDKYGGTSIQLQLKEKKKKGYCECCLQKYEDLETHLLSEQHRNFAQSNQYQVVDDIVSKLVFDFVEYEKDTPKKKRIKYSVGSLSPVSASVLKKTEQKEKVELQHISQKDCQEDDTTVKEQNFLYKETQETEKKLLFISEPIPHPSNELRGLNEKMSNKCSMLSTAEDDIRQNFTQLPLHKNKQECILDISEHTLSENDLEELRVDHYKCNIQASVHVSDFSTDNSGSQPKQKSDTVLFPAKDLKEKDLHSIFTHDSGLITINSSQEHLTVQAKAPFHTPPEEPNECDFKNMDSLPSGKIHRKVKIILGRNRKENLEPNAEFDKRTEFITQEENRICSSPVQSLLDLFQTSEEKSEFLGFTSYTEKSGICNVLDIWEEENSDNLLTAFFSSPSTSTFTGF

This assay addresses Cdc7/ASK (Homo sapiens, UniProt O00311). The assay can be described thus: Cdc7 Biochemical Assay Method 1: 384 well ELISA, whole protein substrate MCM2, antibody against Phospho MCM2 (S53). Further details: purchased. To be noted: 2 μM ATP, read-out: Biochemical Method 1 (pIC50) (converted). As to the method: This protocol describes a method for assaying Cdc7/ASK for activity. The assay is a 384 well ELISA assay, utilising a whole protein substrate (MCM2) and an antibody against Phospho MCM2 (S53). This site is thought to be specific to Cdc7/ASK phosphorylation and the assay has been validated using knockout mutants. Reagents • TBS: 25 mM Tris pH 7.2, 150 mM NaCl. (Dilute 10× stock by 1:10). • Wash Buffer: TBS+0.05% Tween 20. (Add 100 mL 1 M Tris pH 7.2, 120 mL 5 M NaCl and 2 mL 100% Tween 20 per 4 L). • Kinase Reaction Buffer: 50 mM Tris-HCl pH 8.5, 10 mM MgCl2, 1 mM DTT. (Dilute 10× stock by 1:10 and add 100 μL 1M DTT per 100 mL prior to assay). • Diethanolamine Buffer: 1 M diethanolamine pH 9.8, 0.5 mM MgCl2. • Stop Solution: 1 M NaOH. • MCM2 was expressed and purified in-house and used in the assay at a final assay concentration of 436 ng/well. • Cdc7/ASK is purchased from commercial suppliers and used in the assay at a final assay concentration of 37.97 ng/well or 20.63 nM. • ATP used as a final assay concentration of 2 μM. • Primary Antibody: Rabbit anti-Phospho MCM2 (S53 Antibody (BL3353)), is purchased from commercial suppliers at 0.2 mg/mL and used at a final assay concentration by diluting 1:800 in TBS. • Secondary Antibody: Anti-Rabbit/AP Antibody is supplied is purchased from commercial suppliers at 1 mg/mL and used at a final assay concentration by diluting 1:2000 in TBS. • Development Reagent: Dissolve one 20 mg PNPP tablet (Sigma, product […], 20 mg per tablet) per 20 mL diethanolamine Buffer (or one 5 mg PNPP tablet per 5 mL diethanolamine buffer). Cover in foil and leave shaking on a roller shaker at room temperature for up to an hour to dissolve. Methods • 1. Add 20 μL 1× working stock of Substrate (MCM2) in TBS to all wells of a clear, 384 well, Nickel-chelate microplate to give a final concentration of […]. Incubate at room temperature for at least 1 hour. Plates can be pre-coated for 1 hour and stored at 4° C. for up to 8 days. • 2. Wash with TBS+0.05% Tween 20 (80 μL×3). • 3. Add 2 μL 10× test compounds, including the positive control, in 40% DMSO/water to 'test' wells. Add 2 μL 40% DMSO/water to 'control' and 'blank' wells. The final DMSO concentration will be 4%. • 4. Add 13 μL CDC7/ASK Kinase (1.5× stock) in Kinase Reaction Buffer to 'test' and 'control' wells to give a final concentration of […]. Add 13 μL Kinase Reaction Buffer to 'blank' wells. • 5. Add 5 μL ATP (4× stock) in Kinase Reaction Buffer to all wells to give a final concentration of 2 μM. • 6. Incubate at room temperature for 90 minutes. • 7. Wash with TBS+0.05% Tween 20 (80 μL×3). • 8. Add 20 μL 1× working solution of Primary Antibody in TBS to all wells. Incubate at room temperature for 30 minutes. • 9. Wash with TBS+0.05% Tween 20 (80 μL×3). • 10. Add 20 μL 1× working solution of Secondary Antibody in TBS to all wells. Incubate at room temperature for 30 minutes. • 11. Wash with TBS+0.05% Tween 20 (80 μL×3). • 12. Add 20 μL 1× Development Reagent to all wells. • 13. Incubate at room temperature for 2 hours. Stop the reaction by adding 20 μL Stop Solution to all wells and record Absorbance on a Pherastar plate reader. Percentage inhibition values were calculated from absorbance values, using the no compound (DMSO) and no enzyme control values as 0% and 100% inhibition, respectively. IC50 determination was performed with ExcelFit software (IDBS) using curve fit 205. Z' factors were determined for each plate tested and were all above 0.5. Method 2
In general terms: ELISA stands for enzyme-linked immunosorbent assay.
For `O=c1[nH]c(-c2ccncc2)nc(C2CCOCC2)c1Br` [Compound 3, 5-bromo-2-(4-pyridyl)-4-tetrahydropyran-4-yl-1H-pyrimidin-6-one], the IC50 was 6.76 nM.

Consider `O=C(c1ccccn1)N1CCC(c2nc(-c3ccncc3)[nH]c(=O)c2Cl)CC1` [Compound 45], for which the IC50 was 8.71 nM.

As to `O=c1[nH]c(-c2ccncc2)nc(C2CCCCO2)c1Cl` (stereo not drawn) [Compound 15], the IC50 is 832 nM.

For the compound `O=c1[nH]c(-c2ccncc2)nc(C2CCCN2)c1Cl` (stereo not drawn) [Compound 7], the IC50 is 2450 nM.

Turning to `O=C(c1csnn1)N1CCC(c2nc(-c3ccncc3)[nH]c(=O)c2Cl)CC1` [Compound 59], the IC50 is 2.57 nM.

Turning to `CN1CCC(c2nc(-c3ccncc3)[nH]c(=O)c2Cl)CC1` [Compound 79], the IC50 was 10.2 nM.

As for `Cc1cccc(C(=O)N2CCC(c3nc(-c4ccncc4)[nH]c(=O)c3Cl)CC2)c1` [Compound 72], the IC50 is 6.92 nM.

With `CC(=O)c1ccc(C(=O)N2CCC(c3nc(-c4ccncc4)[nH]c(=O)c3Cl)CC2)cc1` [Compound 60], the IC50 was 1.91 nM.

As for `O=c1[nH]c(-c2ccncc2)nc(N2CCN(Cc3cccc(Cl)c3)CC2)c1Cl` [Compound 80], the IC50 is 123 nM.

Turning to `CC(C)(C)C(=O)N1CCC(c2nc(-c3ccncc3)[nH]c(=O)c2Cl)CC1` [Compound 44], the IC50 was 63.1 nM.

For `CC(C)N1CCN(c2nc(-c3ccncc3)[nH]c(=O)c2Cl)CC1` [Compound 86], the IC50 was 138 nM.

As to `O=c1[nH]c(-c2ccncc2)nc(C2CCCNC2)c1Cl` (stereo not drawn) [Compound 8], the IC50 is 3.63 nM.

As for `O=c1[nH]c(-c2ccncc2)nc(C2CCOCC2)c1F` [Compound 5, 5-fluoro-2-(4-pyridyl)-4-tetrahydropyran-4-yl-1H-pyrimidin-6-one], the IC50 is 6.31 nM.

Turning to `O=c1[nH]c(-c2ccncc2)nc(C2(F)CCCNC2)c1Cl` (stereo not drawn) [Compound 19], the IC50 is 3.39 nM.

Regarding `COC(=O)[C@@H]1CN(c2nc(-c3ccncc3)[nH]c(=O)c2Cl)CCN1` [Compound 163, methyl (2S)-4-[5-chloro-6-oxo-2-(4-pyridyl)-1H-pyrimidin-4-yl]piperazine-2-carboxylate hydrochloride], the IC50 was 67.6 nM.

Turning to `Cc1cc(C(=O)N2CCC(c3nc(-c4ccncc4)[nH]c(=O)c3Cl)CC2)no1` [Compound 69], the IC50 is 3.55 nM.

`O=c1[nH]c(-c2ccnc(O)c2)nc(C2CCOCC2)c1Cl` [Compound 402, 5-chloro-2-(2-hydroxy-4-pyridyl)-4-tetrahydropyran-4-yl-1H-pyrimidin-6-one]: the IC50 is 112 nM.

As to `O=C(N1CCC(c2nc(-c3ccncc3)[nH]c(=O)c2Cl)CC1)C(F)(F)F` [Compound 38, 5-chloro-2-(4-pyridyl)-4-[1-(2,2,2-trifluoroacetyl)-4-piperidyl]-1H-pyrimidin-6-one], the IC50 is 5.62 nM.

As to `O=c1[nH]c(-c2ccncc2)nc(N2CCC(Cc3ccccc3)CC2)c1Cl` [Compound 102], the IC50 is 52.5 nM.

For `O=c1[nH]c(-c2ccncc2)nc(N2CCC(O)C2)c1Cl` (stereo not drawn) [Compound 138], the IC50 is 100 nM.

`CC(C)(C)OC(=O)NCC1CN(c2nc(-c3ccncc3)[nH]c(=O)c2Cl)CCO1` (stereo not drawn) [Compound 98]: the IC50 is 85.1 nM.

On to `O=C(c1ccccc1I)N1CCC(c2nc(-c3ccncc3)[nH]c(=O)c2Cl)CC1` [Compound 49], for which the IC50 is 15.8 nM.

For the compound `N#CCN1CCN(c2nc(-c3ccncc3)[nH]c(=O)c2Cl)CC1` [Compound 148], the IC50 is 33.9 nM.

In the case of `O=c1[nH]c(-c2ccncc2)nc(N2CCCN3CCC[C@@H]3C2)c1Cl` [Compound 120], the IC50 was 245 nM.

Consider `O=C(c1ccco1)N1CCC(c2nc(-c3ccncc3)[nH]c(=O)c2Cl)CC1` [Compound 51], for which the IC50 is 5.13 nM.

Turning to `CN(C)C(=O)C1CN(c2nc(-c3ccncc3)[nH]c(=O)c2Cl)CCO1` (stereo not drawn) [Compound 97], the IC50 was 200 nM.

In the case of `CS(=O)(=O)N1CCN(c2nc(-c3ccncc3)[nH]c(=O)c2Cl)CC1` [Compound 43], the IC50 was 3.16 nM.

For `O=c1[nH]c(-c2ccnc(F)c2)nc(C2(F)CCOCC2)c1Cl` [Compound 18], the IC50 is 0.794 nM.

As to `C[C@H](NC(=O)OC(C)(C)C)C(=O)N1CCC(c2nc(-c3ccncc3)[nH]c(=O)c2Cl)CC1` [Compound 71], the IC50 was 14.5 nM.

In the case of `Cc1nc(C)c(C(=O)N2CCC(c3nc(-c4ccncc4)[nH]c(=O)c3Cl)CC2)s1` [Compound 54], the IC50 is 0.871 nM.

Regarding `CC(=O)N1CCC(c2nc(-c3ccncc3)[nH]c(=O)c2Cl)CC1` [Compound 40], the IC50 is 8.13 nM.

As to `O=c1[nH]c(-c2ccncc2)nc(N2CC[C@@H](F)C2)c1Cl` [Compound 133], the IC50 is 56.2 nM.

As for `O=c1[nH]c(-c2ccncc2)nc(N2CCNC(c3cccc(O)c3)C2)c1Cl` (stereo not drawn) [Compound 178], the IC50 was 4.27 nM.

As to `CC(C)C1CC(c2nc(-c3ccncc3)[nH]c(=O)c2Cl)CCO1` (stereo not drawn) [Compound 14], the IC50 was 123 nM.

Consider `O=c1[nH]c(-c2ccncc2)nc(N2CCCC2)c1Cl` [Compound 30], for which the IC50 is 132 nM.

Turning to `COCCC1CN(c2nc(-c3ccncc3)[nH]c(=O)c2Cl)CCO1` (stereo not drawn) [Compound 99], the IC50 is 85.1 nM.

With `O=c1[nH]c(-c2ccncc2)nc(C2CCN(S(=O)(=O)c3ccccc3)CC2)c1Cl` [Compound 37, 4-[1-(benzenesulfonyl)-4-piperidyl]-5-chloro-2-(4-pyridyl)-1H-pyrimidin-6-one], the IC50 is 30.2 nM.

With `O=c1[nH]c(-c2ccncc2)nc(N2CCC3(COC3)C2)c1Cl` [Compound 126], the IC50 was 53.7 nM.

In the case of `N#Cc1c(C2CCOCC2)nc(-c2ccncc2)[nH]c1=O` [Compound 403, 6-oxo-2-(4-pyridyl)-4-tetrahydropyran-4-yl-1H-pyrimidine-5-carbonitrile], the IC50 was 25.7 nM.

As to `CC(C)NC(=O)N1CCC(c2nc(-c3ccncc3)[nH]c(=O)c2Cl)CC1` [Compound 36, 4-[5-chloro-6-oxo-2-(4-pyridyl)-1-H-pyrimidin-4-yl]-N-isopropyl-piperidine-1-carboxamide], the IC50 is 25.7 nM.

On to `O=c1[nH]c(-c2ccncc2)nc(N2CCCNCC2)c1Cl` [Compound 115], for which the IC50 was 229 nM.

Consider `N#Cc1ccc(C(=O)N2CCC(c3nc(-c4ccncc4)[nH]c(=O)c3Cl)CC2)cc1` [Compound 46], for which the IC50 was 1.41 nM.

Regarding `O=C1CCN(c2nc(-c3ccncc3)[nH]c(=O)c2Cl)CCN1` [Compound 117], the IC50 is 5.25 nM.

`O=c1[nH]c(-c2ccncc2)nc(N2CC(CO)C2)c1Cl` [Compound 124]: the IC50 was 263 nM.

Regarding `CCOC1CCN(c2nc(-c3ccncc3)[nH]c(=O)c2Cl)CC1` [Compound 27], the IC50 is 21.4 nM.

Regarding `CC(C)C(=O)N1CCC(c2nc(-c3ccncc3)[nH]c(=O)c2Cl)CC1` [Compound 34, 5-chloro-4-[1-(2-methylpropanoyl)-4-piperidyl]-2-(4-pyridyl)-1H-pyrimidin-6-one], the IC50 is 13.2 nM.

In the case of `CS(=O)(=O)Cc1ccc(C(=O)N2CCC(c3nc(-c4ccncc4)[nH]c(=O)c3Cl)CC2)cc1` [Compound 73], the IC50 was 5.13 nM.

On to `CC1(c2nc(-c3ccnc(F)c3)[nH]c(=O)c2Cl)CCOCC1` [Compound 10], for which the IC50 was 3.02 nM.
